Source: PMC11195807, “Development of a multi-targeted chemotherapeutic approach based on G-quadruplex stabilisation and carbonic anhydrase inhibition” (Journal of Enzyme Inhibition and Medicinal Chemistry, 2024)
Where a name gives a salt, the structure may show the parent alone.

Legend:
[1] = system: GQ structures; experiment: BG4 immunofluorescence of GQ foci, HeLa cells in normoxia; assay type: cell-based; conditions: 24 h, 35.0 µM S-4,0, 40.0 µM C-4,2, 37.5 µM C-5,2, 2 µM RHPS4, over DMSO
Source text: After measuring the viability of HeLa cells upon treatment with the newly synthesised MTDLs mentioned above, we probed the capability of the three most cytotoxic ones (S-4,0, C-4,2, and C-5,2) to affect the formation of GQ structures by immunofluorescence (IF) microscopy, using the BG4 antibody that selectively recognises the GQ structures. As it can be noticed in Figure 6, the fluorescence intensity of the total number of GQ foci increased by around 30% after treatment with both the coumarin derivative C-4,2 and the reference GQ binder RHPS4, whereas it was not affected by S-4,0 and C-5,2. […] On the contrary, the levels of GQ structures were influenced neither by the treatment with the sulphonamide S-4,0 nor by the coumarin C-5,2, despite their ability to thermally stabilise some GQ-forming sequences in vitro.
Figure 6. (A) Representative fields showing G4 foci formation detected by immunofluorescence in HeLa cells treated for 24 h with 35.0 µM S-4,0, 40.0 µM C-4,2, and 37.5 µM C-5,2 or an equivalent amount of vehicle (0.1% DMSO). As a positive control, cells were treated with 2 µM RHPS4 (a well-established GQ ligand)[68] for 24 h. Scale bar: 10 µm. Upper panels: the merged channels of BG4-stained GQ structures (magenta) and Hoechst-counterstained nuclei (grey) are reported. Lower panels: enlargements from the pictures in the upper panels. (B) Quantitative analysis of the fluorescence intensity of the total number of GQ foci. An average of 50 cells were screened for each condition and the results are expressed as a fold change of fluorescence intensity (anti-GQ signal) over the negative control (DMSO). Histograms show the mean ± SD of three independent experiments. The statistical significance was calculated using a one-way ANOVA test on GraphPad Prism 8.0.2 (ns: not significant, **: p < 0.01).
For the IF experiments in the presence of normal oxygen levels, HeLa cells were seeded on sterile coverslips, in a 24-well plate, at a density of 90,000 cells per well, and incubated overnight. Then, cells were treated with a sublethal concentration of each investigated MTDL or an equivalent amount of vehicle (0.1% DMSO), for 24 h. As positive control, cells were exposed for 24 h to 2 µM RHPS4. As regards the IF experiments under hypoxic conditions, HeLa were seeded on sterile coverslips, in a 24-well plate, at a density of 50,000 cells per well, and incubated overnight. […] From there, the cellular and nuclear foci were segmented, and their number or fluorescence intensity was quantified by using the Image Analysis package of ZEISS ZEN 3.1 software.

COc1ccc2cc3[n+](cc2c1OCc1cn(CCCCCOc2ccc4ccc(=O)oc4c2)nn1)CCc1cc2c(cc1-3)OCO2 (as salt: phosphate) [Compound 44, 10-Methoxy-9-((1–(5-((2-oxo-2H-chromen-7-yl)oxy)pentyl)-1H-1,2,3-triazol-4-yl)methoxy)-5,6-dihydro-[1,3]dioxolo[4,5-g]isoquinolino[3,2-a]isoquinolin-7-ium hexafluorophosphate]
melting point: 171 to 173 °C

COc1ccc2cc3[n+](cc2c1OCc1cn(-c2ccc4c(C)cc(=O)oc4c2)nn1)CCc1cc2c(cc1-3)OCO2 (as salt: phosphate) [Compound 45, 10-Methoxy-9-((1–(4-methyl-2-oxo-2H-chromen-7-yl)-1H-1,2,3-triazol-4-yl)methoxy)-5,6-dihydro-[1,3]dioxolo[4,5-g]isoquinolino[3,2-a]isoquinolin-7-ium hexafluorophosphate]
melting point: 280 to 282 °C

COS(=O)(=O)[O-].Cc1cc2c3c([n+](C)c4ccc(F)cc4c3c1)-c1cc(F)ccc1N2C [RHPS4, reference compound]
increase of fluorescence intensity of the total number of GQ foci [1]: around 30%
